Inhibition and IC50 data for 25 molecules are collected here from patent US7501430B2 (ArQule, Inc., priority 2006, dated 2009).

The target in the assay is T1, mutant B-RAF (Homo sapiens, UniProt P15056, V600E).
T1 construct: purchased Upstate (Charlottesville, Va.)
The experiment in a line: RAF biochemical assay (MEK-1 phosphorylation, anti-phospho MEK1/2 detection). The conditions noted are these: for inhibition at 10 µM: read-out: Mutant B-RAF % inhibition; for IC50: read-out: Mutant B-RAF IC50. The method, then: Materials: The RAF kinases and the anti-phospho MEK1/2 antibody were from Upstate (Charlottesville, Va.). The RAF substrate used was full length N-terminal GST-MEK-1, which was expressed in E. coli and purified in-house by HPLC. All proteins were aliquoted and stored at −80° C.
Compounds were serially diluted in assay buffer containing 1% DMSO and 20 μL of test compound at a concentration 3-fold more than the final concentration, and were added to a polypropylene V-well reaction plate. Vehicle control wells received buffer only with DMSO at equivalent concentrations to the test wells. […] These reaction plates were incubated at room temperature for 30 minutes. Capture of MEK-1 was initiated by transferring 50 μl of the reaction mixture to a Nunc Maxisorp™ microplate that is designed for non-specific protein capture. After 30 minute capture of MEK-1 at room temperature, this plate was washed with TBST (6×200 μL/well) to fully terminate the reaction. The plate was then blocked for 1 hour by the addition of 100 μl/well of Superblock™ in phosphate buffered saline (PBS) blocking reagent. Plate was again washed with TBST (6 times with 200 μL/well), followed by the addition of 70 μL/well of Upstate anti-phospho MEK 1/2 diluted 1:1000 in Pierce Superblock (PBS). After a 60 minute incubation, this plate was washed with TBST (6 times with 200 μL/well), and 70 μL of the secondary antibody (Pierce Alkaline Phosphatase tagged goat anti-rabbit) prepared at 1:4000 in Superblock, were added. After a 45 minute incubation at room temperature, the wells of the microplate were washed with TBST (6 times with 200 μL/well), and thereafter 100 μl/well of Attophos™ fluorescent alkaline phosphatase substrate was added according to the manufacturer's instructions (JBL Scientific).

Like-named read-outs stand apart in the source and are kept apart here. Some results are limits rather than exact numbers.

T1 sequence (P15056 whole entry V600E): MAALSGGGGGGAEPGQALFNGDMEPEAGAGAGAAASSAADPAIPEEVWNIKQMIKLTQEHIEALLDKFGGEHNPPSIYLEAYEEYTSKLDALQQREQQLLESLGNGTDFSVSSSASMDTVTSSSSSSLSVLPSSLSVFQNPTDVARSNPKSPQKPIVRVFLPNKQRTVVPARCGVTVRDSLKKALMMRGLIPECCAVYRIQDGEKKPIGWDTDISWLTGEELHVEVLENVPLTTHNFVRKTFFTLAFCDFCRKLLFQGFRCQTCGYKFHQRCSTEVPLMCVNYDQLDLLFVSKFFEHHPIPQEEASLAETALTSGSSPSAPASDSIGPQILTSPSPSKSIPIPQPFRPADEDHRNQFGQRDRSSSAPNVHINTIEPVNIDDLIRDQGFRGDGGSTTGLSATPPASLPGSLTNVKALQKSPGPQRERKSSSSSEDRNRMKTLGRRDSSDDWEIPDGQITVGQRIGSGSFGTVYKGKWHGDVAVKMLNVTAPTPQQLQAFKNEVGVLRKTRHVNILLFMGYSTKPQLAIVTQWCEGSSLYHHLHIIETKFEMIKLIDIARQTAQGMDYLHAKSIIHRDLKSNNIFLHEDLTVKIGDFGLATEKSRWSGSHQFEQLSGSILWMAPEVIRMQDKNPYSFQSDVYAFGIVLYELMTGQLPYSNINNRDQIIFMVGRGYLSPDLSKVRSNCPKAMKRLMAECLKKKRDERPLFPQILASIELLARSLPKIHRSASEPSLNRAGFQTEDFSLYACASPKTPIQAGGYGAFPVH

On to `O=C(NCCc1ccc(F)cc1)N1CCC[C@@H](Nc2nccc(-c3c(-c4ccc(F)cc4)nc4occn34)n2)C1` [Example 71, (3R)-N-[2-(4-fluorophenyl)ethyl]-3-({4-[6-(4-fluorophenyl)imidazo[2,1-b][1,3]oxazol-5-yl]pyrimidin-2-yl}amino)piperidine-1-carboxamide], for which, where the note is “@ 10 uM”, the inhibition (as a rule, the relative decrease from the control value, in per cent) at 10 µM is 16%.

With `C[C@@H](NC(=O)N1CCC[C@@H](Nc2nccc(-c3c(-c4ccc(F)cc4)nc4occn34)n2)C1)c1ccccc1` [Example 72, (3R)-3-({4-[6-(4-fluorophenyl)imidazo[2,1-b][1,3]oxazol-5-yl]pyrimidin-2-yl}amino)-N-[(1R)-1-phenylethyl]piperidine-1-carboxamide], the inhibition at 10 µM (@ 10 uM) stood at 53%. Still for that read-out and setting: the same measure for `O=C(Nc1ccc(F)c(F)c1)N1CCC[C@@H](Nc2nccc(-c3c(-c4ccc(F)cc4)nc4occn34)n2)C1` [Example 73, (3R)-N-(3,4-difluorophenyl)-3-({4-[6-(4-fluorophenyl)imidazo[2,1-b][1,3]oxazol-5-yl]pyrimidin-2-yl}amino)piperidine-1-carboxamide]: 37%; for `O=C(Nc1ccccc1F)N1CCC[C@@H](Nc2nccc(-c3c(-c4ccc(F)cc4)nc4occn34)n2)C1` [Example 74, (3R)-N-(2-fluorophenyl)-3-({4-[6-(4-fluorophenyl)imidazo[2,1-b][1,3]oxazol-5-yl]pyrimidin-2-yl}amino)piperidine-1-carboxamide]: 35%.

In the case of `COc1cc([N+](=O)[O-])ccc1NC(=O)N1CCC[C@@H](Nc2nccc(-c3c(-c4ccc(F)cc4)nc4occn34)n2)C1` [Example 75, (3R)-3-({4-[6-(4-fluorophenyl)imidazo[2,1-b][1,3]oxazol-5-yl]pyrimidin-2-yl}amino)-N-(2-methoxy-4-nitrophenyl)piperidine-1-carboxamide], the IC50 (usually the point on the concentration scale where inhibition reaches its midpoint) was above 10000 nM. For the molecule `O=C(NCc1ccc(F)cc1)N1CCC[C@@H](Nc2nccc(-c3c(-c4ccc(F)cc4)nc4occn34)n2)C1` [Example 76, (3R)-N-(4-fluorobenzyl)-3-({4-[6-(4-fluorophenyl)imidazo[2,1-b][1,3]oxazol-5-yl]pyrimidin-2-yl}amino)piperidine-1-carboxamide], for the setting “@ 10 uM”, the inhibition at 10 µM came to 36%.

`COc1cccc(-c2nc3sccn3c2-c2ccnc(N[C@@H]3CCCNC3)n2)c1` [Example 77, 4-[6-(3-methoxyphenyl)imidazo[2,1-b][1,3]thiazol-5-yl]-N-[(3R)-piperidin-3-yl]pyrimidin-2-amine]: the IC50 was 1810 nM.

Consider `Fc1ccc(-c2nc3sccn3c2-c2ccnc(N[C@@H]3CCCNC3)n2)cc1F` [Example 78, 4-[6-(3,4-difluorophenyl)imidazo[2,1-b][1,3]thiazol-5-yl]-N-[(3R)-piperidin-3-yl]pyrimidin-2-amine], for which the IC50 turned out to be 1260 nM.

On to `Cc1cn2c(-c3ccnc(N[C@@H]4CCCNC4)n3)c(-c3ccc(F)cc3)nc2s1` [Example 79, 4-[6-(4-fluorophenyl)-2-methylimidazo[2,1-b][1,3]thiazol-5-yl]-N-((3R)-piper-idin-3-yl]pyrimidin-2-amine], for which, under “@ 10 uM”, the inhibition at 10 µM was found to be 67%.

Take `COc1cccc(-c2nc3sccn3c2-c2ccnc(N[C@@H]3CCCN(C(=O)NCc4ccccc4)C3)n2)c1` [Example 80, (3R)-N-benzyl-3-({4-[6-(3-methoxyphenyl)imidazo[2,1-b][1,3]thiazol-5-yl]pyrimidin-2-yl}amino)piperidine-1-carboxamide]: the inhibition at 10 µM (@ 10 uM) amounted to 40%.

For `COc1cccc(-c2nc3sccn3c2-c2ccnc(N[C@@H]3CCCN(C(=O)NCc4ccco4)C3)n2)c1` [Example 81, (3R)-N-(2-furylmethyl)-3-({4-[6-(3-methoxyphenyl)imi-dazo[2,1-b][1,3]thiazol-5-yl]pyrimidin-2-yl}amino)piperidine-1-carboxamide], the inhibition at 10 µM worked out at 50%. `COc1cccc(-c2nc3sccn3c2-c2ccnc(N[C@@H]3CCCN(S(=O)(=O)c4ccc(F)cc4)C3)n2)c1` [Example 82, N-{(3R)-1-[(4-fluorophenyl)sulfonyl]piper-idin-3-yl}-4-(6-(3-methoxyphenyl)imidazo[2,1-b][1,3]thiazot-5-yl]pyrimidin-2-amine]: the IC50 was determined as 192 nM. Consider `COc1ccc(C(=O)N2CCC[C@@H](Nc3nccc(-c4c(-c5cccc(OC)c5)nc5sccn45)n3)C2)cc1` [Example 83, N-[(3R)-1-(4-methoxybenzoyl)piperidin-3-yl]-4-[6-(3-methoxyphenyl)imidazo[2,1-b][1,3]thiazol-5-yl]pyrimidin-2-amine], for which the IC50 was above 3000 nM. Turning to `COc1cccc(-c2nc3sccn3c2-c2ccnc(N[C@@H]3CCCN(C(=O)Nc4ccc(N(C)C)cc4)C3)n2)c1` [Example 84, (3R)-N-[4-(dimethylamino)phenyl]-3-({4-[6-(3-methoxyphenyl)imi-dazo[2,1-b][1,3]thiazol-5-yl]pyrimidin-2-yl}amino)piperidine-1-carboxamide], the inhibition at 10 µM came to 19%. As to `O=S(=O)(c1ccc(F)cc1)N1CCC[C@@H](Nc2nccc(-c3c(-c4ccc(F)c(F)c4)nc4sccn34)n2)C1` [Example 85, 4-[6-(3,4-difluorophenyl)imidazo[2,1-b][1,3]thiazol-5-yl]-N-{(3R)-1-[(4-fluorophenyl)sulfonyl]piperidin-3-yl}pyrimidin-2-amine], the IC50 came to 58 nM.

In the case of `CN(C)c1ccc(NC(=O)N2CCC[C@@H](Nc3nccc(-c4c(-c5ccc(F)c(F)c5)nc5sccn45)n3)C2)cc1` [Example 86, (3R)-3-({4-[6-(3,4-difluorophenyl)imidazo[2,1-b][1,3]thiazol-5-yl]pyrimidin-2-yl}amino)-N-[4-(dimethylamino)phenyl]pip-eridine-1-carboxamide], the inhibition at 10 µM (@ 10 uM) worked out at 54%.

As for `O=C(NCc1ccccc1)N1CCC[C@@H](Nc2nccc(-c3c(-c4ccc(F)c(F)c4)nc4sccn34)n2)C1` [Example 87, (3R)-N-benzyl-3-({4-[6-(3,4-difluorophenyl)imidazo[2,1-b][1,3]thiazol-5-yl]pyrimidin-2-yl}amino)piperidine-1-carboxamide], where the note is “@ 10 uM”, the inhibition at 10 µM was 53%. Take `O=C(NCc1ccco1)N1CCC[C@@H](Nc2nccc(-c3c(-c4ccc(F)c(F)c4)nc4sccn34)n2)C1` [Example 88, (3R)-3-({4-[6-(3,4-difluorophenyl)imidazo[2,1-b][1,3]thiazol-5-yl]pyrimidin-2-yl}amino)-N-(2-furylmethyl)piperidine-1-carboxamide]: the inhibition at 10 µM (@ 10 uM) was 54%. Take `COc1ccc(C(=O)N2CCC[C@@H](Nc3nccc(-c4c(-c5ccc(F)c(F)c5)nc5sccn45)n3)C2)cc1` [Example 89, 4-[6-(3,4-difluorophenyl)imidazo[2,1-b][1,3]thiazol-5-yl]-N-[(3R)-1-(4-methoxybenzoyl)piper-idin-3-yl]pyrimidin-2-amine]: under “@ 10 uM”, the inhibition at 10 µM was 40%. Regarding `Cc1cn2c(-c3ccnc(N[C@@H]4CCCN(S(=O)(=O)c5ccc(F)cc5)C4)n3)c(-c3ccc(F)cc3)nc2s1` [Example 91, 4-[6-(4-fluorophenyl)-2-methylimidazo[2,1-b][1,3]thiazol-5-yl]-N-{(3R)-1-[(4-fluorophenyl)sulfonyl]piper-idin-3-yl}pyrimidin-2-amine], the concentration for half-maximal inhibition (IC50) is 352 nM. `Cc1cn2c(-c3ccnc(N[C@@H]4CCCN(C(=O)NCc5ccco5)C4)n3)c(-c3ccc(F)cc3)nc2s1` [Example 93, (3R)-3-({4-[6-(4-fluoro-phenyl)-2-methylimidazo[2,1-b][1,3]thiazol-5-yl]pyrimidin-2-yl}amino)-N-(2-furylmethyl)piperidine-1-carboxamide]: the inhibition at 10 µM (@ 10 uM) was determined as 61%. As for `Cc1cn2c(-c3ccnc(N[C@@H]4CCCN(C(=O)Nc5ccc(N(C)C)cc5)C4)n3)c(-c3ccc(F)cc3)nc2s1` [Example 94, (3R)-N-[4-(dimethyl-amino)phenyl]-3-({4-[6-(4-fluorophenyl)-2-methylimidazo[2,1-b][1,3]thiazol-5-yl]pyrimidin-2-yl}amino)piperidine-1-carboxamide], the IC50 is above 3000 nM.

With `COc1cccc(-c2nc3sccn3c2-c2ccnc(N[C@@H]3CCCN(S(=O)(=O)c4ccc(Cl)cc4)C3)n2)c1` [Example 95, N-{(3R)-1-[(4-chlorophenyl)sulfonyl]piperidin-3-yl}-4-[6-(3-methoxyphenyl)imidazo[2,1-b][1,3]thiazol-5-yl]pyrimidin-2-amine], the IC50 was 147 nM. Same read-out and setting: the same measure for `Cc1cn2c(-c3ccnc(N[C@@H]4CCCN(S(=O)(=O)c5ccc(Cl)cc5)C4)n3)c(-c3ccc(F)cc3)nc2s1` [Example 96, N-{(3R)-1-[(4-chlorophenyl)sulfonyl]piperidin-3-yl}-4-[6-(4-fluorophenyl)-2-methyl-imidazo[2,1-b][1,3]thiazol-5-yl]pyrimidin-2-amine]: 26 nM. The same measure, in the same setting: the same measure for `c1ccc2cc(-c3nc4sccn4c3-c3ccnc(N[C@@H]4CCCNC4)n3)ccc2c1` [Example 97, 4-[6-(2-naphthyl)imidazo[2,1-b][1,3]thiazol-5-yl]-N-[(3R)-piperidin-3-yl]pyrimidin-2-amine]: 314 nM.
